Experiments:
Experiment in all cases: relative viability (nuclei count vs DMSO), 5 days (fraction); higher = more cells survive
Carboplatin + Trametinib = compound: C1CC(C1)(C(=O)O)C(=O)O.[NH2-].[NH2-].[Pt+2] [Carboplatin] + CC(=O)Nc1cccc(-n2c(=O)n(C3CC3)c(=O)c3c(Nc4ccc(I)cc4F)n(C)c(=O)c(C)c32)c1 [Trametinib] (partner 0.02 µM)
How it was run: (§1)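 Medians of duplicate plates are given as relative viability. That measure is the nuclei count in treated wells divided by the count in vehicle wells. Counts were taken on 4× images of lung cancer cell lines in 1536-well plates, 5 days after pin-tool dosing the day after seeding with one drug alone or a fixed anchor-drug dose plus five library-drug doses (not always all listed) in √10 steps.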

Carboplatin + Pemetrexed = compound: C1CC(C1)(C(=O)O)C(=O)O.[NH2-].[NH2-].[Pt+2] [Carboplatin] + Nc1nc2[nH]cc(CCc3ccc(C(=O)N[C@@H](CCC(=O)O)C(=O)O)cc3)c2c(=O)[nH]1 [Pemetrexed] (partner 0.2 µM)
How it was run: as §1

GSK126 + Luminespib = compound: CC[C@H](C)N1C=C(C2=C(C=C(C=C21)C3=CN=C(C=C3)N4CCNCC4)C(=O)NCC5=C(C=C(NC5=O)C)C)C [GSK126] + CCNC(=O)c1noc(-c2cc(C(C)C)c(O)cc2O)c1-c1ccc(CN2CCOCC2)cc1 [Luminespib] (partner 0.01 µM)
How it was run: as §1

GSK126 + AZD7762 = compound: CC[C@H](C)N1C=C(C2=C(C=C(C=C21)C3=CN=C(C=C3)N4CCNCC4)C(=O)NCC5=C(C=C(NC5=O)C)C)C [GSK126] + NC(=O)Nc1cc(-c2cccc(F)c2)sc1C(=O)N[C@H]1CCCNC1 [AZD7762] (partner 0.2 µM)
How it was run: as §1

| Cell Line | relative viability (Carboplatin + Trametinib; first compound 0.08 µM) | relative viability (Carboplatin + Trametinib; first compound 0.253 µM) | relative viability (Carboplatin + Trametinib; first compound 0.8 µM) | relative viability (Carboplatin + Trametinib; first compound 2.53 µM) | relative viability (Carboplatin + Trametinib; first compound 8 µM) | relative viability (Carboplatin + Pemetrexed; first compound 0.08 µM) | relative viability (Carboplatin + Pemetrexed; first compound 0.253 µM) | relative viability (Carboplatin + Pemetrexed; first compound 0.8 µM) | relative viability (Carboplatin + Pemetrexed; first compound 2.53 µM) | relative viability (Carboplatin + Pemetrexed; first compound 8 µM) | relative viability (GSK126 + Luminespib; first compound 0.08 µM) | relative viability (GSK126 + Luminespib; first compound 0.253 µM) | relative viability (GSK126 + Luminespib; first compound 0.8 µM) | relative viability (GSK126 + Luminespib; first compound 2.53 µM) | relative viability (GSK126 + Luminespib; first compound 8 µM) | relative viability (GSK126 + AZD7762; first compound 0.08 µM) | relative viability (GSK126 + AZD7762; first compound 0.253 µM) | relative viability (GSK126 + AZD7762; first compound 0.8 µM) | relative viability (GSK126 + AZD7762; first compound 2.53 µM) | relative viability (GSK126 + AZD7762; first compound 8 µM) |
| --- | --- | --- | --- | --- | --- | --- | --- | --- | --- | --- | --- | --- | --- | --- | --- | --- | --- | --- | --- | --- |
| NCI-H1975 | 0.329 | 0.391 | 0.33 | 0.371 | 0.388 | 0.297 | 0.266 | 0.277 | 0.298 | 0.268 | 0.292 | 0.257 | 0.185 | 0.198 | 0.12 | 0.775 | 0.703 | 0.682 | 0.784 | 0.64 |
| NCI-H1355 | 0.45 | 0.438 | 0.474 | 0.403 | 0.367 | 1.06 | 1.1 | 1.09 | 1 | 0.892 | 0.783 | 0.753 | 0.777 | 0.881 | 0.806 | 0.814 | 0.658 | 0.688 | 0.746 | 0.479 |
| NCI-H1755 | 0.823 | 0.78 | 0.752 | 0.82 | 0.7 | 0.436 | 0.371 | 0.437 | 0.443 | 0.386 | 0.435 | 0.519 | 0.58 | 0.381 | 0.501 | 0.468 | 0.446 | 0.395 | 0.461 | 0.412 |
| LK-2 | 0.772 | 0.973 | 0.624 | 0.58 | 0.846 | 0.336 | 0.314 | 0.273 | 0.233 | 0.289 | 0.217 | 0.171 | 0.171 | 0.204 | 0.188 | 0.402 | 0.364 | 0.401 | 0.623 | 0.293 |
| HCC-827 | 0.579 | 0.517 | 0.557 | 0.497 | 0.57 | 0.253 | 0.244 | 0.259 | 0.234 | 0.245 | 0.612 | 0.685 | 0.676 | 0.629 | 0.783 | 0.214 | 0.191 | 0.24 | 0.232 | 0.196 |
| NCI-H322M | 0.543 | 0.488 | 0.537 | 0.552 | 0.525 | 0.688 | 0.601 | 0.613 | 0.594 | 0.616 | 0.822 | 0.845 | 0.85 | 0.978 | 0.834 | 0.538 | 0.531 | 0.536 | 0.647 | 0.53 |
| NCI-H1944 | 0.439 | 0.419 | 0.439 | 0.362 | 0.338 | 0.644 | 0.557 | 0.643 | 0.526 | 0.485 | 0.873 | 0.72 | 0.621 | 0.678 | 0.923 | 0.476 | 0.46 | 0.441 | 0.547 | 0.461 |
| BEN | 1.2 | 0.928 | 0.97 | 0.893 | 0.865 | 1.02 | 0.931 | 0.772 | 0.759 | 0.738 | 0.465 | 0.681 | 0.222 | 0.419 | 0.342 | 0.718 | 0.605 | 0.785 | 0.744 | 0.612 |

— the supplement of paper PMC10307832
